From ChEMBL document CHEMBL1158272, “Novel antiplatelet constituents from formosan moraceous plants” (J Nat Prod, 1996)
pIC50: −log10 of the molar value. Converted amounts (≈) assume the structure as drawn. Blank lines part the entries; values can stand above or below the molecule they belong to.

Tests used:
[1] = Antiplatelet activity against human platelets in platelet rich plasma assessed as adrenaline-induced platelet aggregation at 150 uM pretreated 3 mins before adrenaline challenge by turbidimetric method; format: functional
[2] = Antiplatelet activity against human platelets in platelet rich plasma assessed as adrenaline-induced platelet aggregation at 100 uM pretreated 3 mins before adrenaline challenge by turbidimetric method; format: functional
[3] = Inhibition of ram seminal vesicle cyclooxygenase pretreated 2 mins before arachidonate substrate addition; format: tissue-based, Ovis aries
[4] = Antiplatelet activity against rabbit platelets assessed as arachidonic acid-induced platelet aggregation at 50 uM by turbidimetric method; format: functional, Oryctolagus cuniculus
[5] = Antiplatelet activity against rabbit platelets assessed as collagen-induced platelet aggregation at 50 uM by turbidimetric method; format: functional, Oryctolagus cuniculus
[6] = Antiplatelet activity against rabbit platelets assessed as platelet-activating facto-induced platelet aggregation at 50 uM by turbidimetric method; format: functional, Oryctolagus cuniculus
[7] = Antiplatelet activity against rabbit platelets assessed as thrombin-induced platelet aggregation at 50 uM by turbidimetric method; format: functional, Oryctolagus cuniculus
[8] = Antiplatelet activity against rabbit platelets assessed as arachidonic acid-induced platelet aggregation by turbidimetric method; format: functional, cell-based; conditions: Oryctolagus cuniculus
[9] = Antiplatelet activity against human platelets in platelet rich plasma assessed as adrenaline-induced platelet aggregation at 300 uM pretreated 3 mins before adrenaline challenge by turbidimetric method; format: functional
[10] = Antiplatelet activity against rabbit platelets assessed as arachidonic acid-induced platelet aggregation at 30 uM by turbidimetric method; format: functional, Oryctolagus cuniculus
[11] = Antiplatelet activity against rabbit platelets assessed as collagen-induced platelet aggregation at 30 uM by turbidimetric method; format: functional, Oryctolagus cuniculus
[12] = Antiplatelet activity against rabbit platelets assessed as platelet-activating facto-induced platelet aggregation at 30 uM by turbidimetric method; format: functional, Oryctolagus cuniculus
[13] = Antiplatelet activity against rabbit platelets assessed as collagen-induced platelet aggregation by turbidimetric method; format: functional, cell-based; conditions: Oryctolagus cuniculus
[14] = Antiplatelet activity against rabbit platelets assessed as platelet-activating facto-induced platelet aggregation by turbidimetric method; format: functional, cell-based; conditions: Oryctolagus cuniculus
[15] = Antiplatelet activity against rabbit platelets assessed as arachidonic acid-induced platelet aggregation at 300 uM by turbidimetric method; format: functional, Oryctolagus cuniculus
[16] = Antiplatelet activity against rabbit platelets assessed as collagen-induced platelet aggregation at 300 uM by turbidimetric method; format: functional, Oryctolagus cuniculus
[17] = Antiplatelet activity against rabbit platelets assessed as platelet-activating facto-induced platelet aggregation at 300 uM by turbidimetric method; format: functional, Oryctolagus cuniculus
[18] = Antiplatelet activity against rabbit platelets assessed as thrombin-induced platelet aggregation at 300 uM by turbidimetric method; format: functional, Oryctolagus cuniculus
[19] = Antiplatelet activity against rabbit platelets assessed as arachidonic acid-induced platelet aggregation at 100 uM by turbidimetric method; format: functional, Oryctolagus cuniculus
[20] = Antiplatelet activity against rabbit platelets assessed as platelet-activating facto-induced platelet aggregation at 100 uM by turbidimetric method; format: functional, Oryctolagus cuniculus
[21] = Antiplatelet activity against rabbit platelets assessed as collagen-induced platelet aggregation at 100 uM by turbidimetric method; format: functional, Oryctolagus cuniculus
[22] = Antiplatelet activity against rabbit platelets assessed as thrombin-induced platelet aggregation at 100 uM by turbidimetric method; format: functional, Oryctolagus cuniculus
[23] = Antiplatelet activity against rabbit platelets assessed as arachidonic acid-induced platelet aggregation at <100 uM by turbidimetric method; format: functional, Oryctolagus cuniculus
[24] = Antiplatelet activity against rabbit platelets assessed as collagen-induced platelet aggregation at <100 uM by turbidimetric method; format: functional, Oryctolagus cuniculus
[25] = Antiplatelet activity against rabbit platelets assessed as platelet-activating facto-induced platelet aggregation at <100 uM by turbidimetric method; format: functional, Oryctolagus cuniculus
[26] = Antiplatelet activity against rabbit platelets assessed as thrombin-induced platelet aggregation at <100 uM by turbidimetric method; format: functional, Oryctolagus cuniculus
[27] = Antiplatelet activity against human platelets in platelet rich plasma assessed as adrenaline-induced platelet aggregation at 450 uM pretreated 3 mins before adrenaline challenge by turbidimetric method; format: functional
[28] = Antiplatelet activity against rabbit platelets assessed as collagen-induced platelet aggregation at 60 uM by turbidimetric method; format: functional, Oryctolagus cuniculus
[29] = Antiplatelet activity against rabbit platelets assessed as platelet-activating facto-induced platelet aggregation at 60 uM by turbidimetric method; format: functional, Oryctolagus cuniculus
[30] = Antiplatelet activity against rabbit platelets assessed as arachidonic acid-induced platelet aggregation at 15 uM by turbidimetric method; format: functional, Oryctolagus cuniculus
[31] = Antiplatelet activity against rabbit platelets assessed as collagen-induced platelet aggregation at 15 uM by turbidimetric method; format: functional, Oryctolagus cuniculus
[32] = Antiplatelet activity against rabbit platelets assessed as arachidonic acid-induced platelet aggregation at 20 uM by turbidimetric method; format: functional, Oryctolagus cuniculus
[33] = Antiplatelet activity against rabbit platelets assessed as collagen-induced platelet aggregation at 20 uM by turbidimetric method; format: functional, Oryctolagus cuniculus
[34] = Antiplatelet activity against rabbit platelets assessed as platelet-activating facto-induced platelet aggregation at 20 uM by turbidimetric method; format: functional, Oryctolagus cuniculus
[35] = Antiplatelet activity against rabbit platelets assessed as thrombin-induced platelet aggregation at 20 uM by turbidimetric method; format: functional, Oryctolagus cuniculus
[36] = Antiplatelet activity against human platelets in platelet rich plasma assessed as adrenaline-induced platelet aggregation at 50 uM pretreated 3 mins before adrenaline challenge by turbidimetric method; format: functional

Structure (SMILES): CC(C)=CCc1cc([C@@H]2CCc3ccc(O)cc3O2)c(CC=C(C)C)c(O)c1O [KAZINOL A]
- Activity [10]: 0%
- Activity [11]: 0%
- Activity [12]: 65.8%
- pIC50 [8]: 4.94
- pIC50 [13]: 4.68
- pIC50 [14]: 4.26

Structure (SMILES): COc1cc(O)c2c(c1)O[C@H](c1ccc(O)cc1O)CC2=O [ARTOCARPANONE]
- Activity [15]: 0%
- Activity [16]: 1.1%
- Activity [17]: 38.6%
- Activity [18]: 90.2%
- pIC50 [8]: 4.39
- pIC50 [13]: 4.04

Structure (SMILES): COc1cc(O)c2c(=O)cc(-c3ccc(O)cc3O)oc2c1 [ARTOCARPETIN]
- Activity [15]: 0%
- Activity [16]: 73.8%
- Activity [17]: 85.7%
- Activity [18]: 88.2%
- pIC50 [8]: 4.02

Structure (SMILES): COc1cc(OC)c([C@@H]2CC(=O)c3c(O)cc(OC)c(CC=C(C)C)c3O2)c(OC)c1
- Activity [15]: 81.5%
- Activity [16]: 68.9%
- Activity [17]: 84.5%
- Activity [18]: 85.7%

Structure (SMILES): CC(=O)Oc1cc2c(cc1OC(C)=O)-c1oc3c(CC=C(C)C)c4c(c(O)c3c(=O)c1C(C=C(C)C)O2)C=CC(C)(C)O4 (stereo unspecified) [CYCLOHETERPHYLLIN DIACETATE]
- Activity [23]: 83.4%
- Activity [24]: 4.9%
- Activity [25]: 86%
- Activity [26]: 91.3%

Structure (SMILES): CC(C)=CCc1cc(C(=O)/C=C/c2ccc(O)c(O)c2)c(O)cc1O [BROUSSOCHALCONE A]
- Activity [27]: 40.1%
- IC50 [3]: 19.4 µg/mL (≈ 57 µM)
- Activity [28]: 0%
- Activity [29]: 67.8%
- Activity [30]: 0%
- Activity [31]: 55.1%
- pIC50 [8]: 5.17
- pIC50 [13]: 4.65
- pIC50 [14]: 3.93
- Activity [9]: 74%

Structure (SMILES): CC(=O)Oc1cc2c(cc1OC(C)=O)-c1oc3c(CC=C(C)C)c4c(c(OC(C)=O)c3c(=O)c1C(C=C(C)C)O2)C=CC(C)(C)O4 (stereo unspecified) [CYCLOHETERPHYLLIN PERACETATE]
- Activity [23]: 74%
- Activity [24]: 73%
- Activity [25]: 78.3%
- Activity [26]: 91%

Structure (SMILES): COc1cc2oc(-c3ccc(O)cc3O)c(CC=C(C)C)c(=O)c2c(O)c1/C=C/C(C)C [ARTOCARPIN]
- Activity [32]: 54.8%
- Activity [33]: 84%
- Activity [34]: 76%
- Activity [35]: 87.3%

Structure (SMILES): CC(=O)Oc1ccccc1C(=O)O [ASPIRIN]
- Activity [36]: 39.6%
- Activity [4]: 0%
- Activity [5]: 85.4%
- Activity [6]: 90.5%
- Activity [7]: 91.9%

Structure (SMILES): COc1cc(O)c2c(=O)cc(-c3ccc(O)cc3O)oc2c1CC=C(C)C [ARTOCARPETIN A]
- Activity [15]: 61.8%
- Activity [16]: 46.8%
- Activity [17]: 59.8%
- Activity [18]: 80.4%

Structure (SMILES): CC(C)=CCc1cc(-c2oc3c(CC=C(C)C)c(O)cc(O)c3c(=O)c2O)ccc1O [BROUSSOFLAVONOL F]
- IC50 [3]: 17.5 µg/mL (≈ 41.4 µM)
- Activity [19]: 0%
- Activity [21]: 0%
- Activity [20]: 84.8%
- Activity [22]: 93.1%
- pIC50 [8]: 4.77

Structure (SMILES): COc1cc(O)c2c(c1)O[C@H](c1c(OC)cc(OC)cc1OC)CC2=O
- Activity [15]: 27.9%
- Activity [16]: 66.1%
- Activity [17]: 81%
- Activity [18]: 83.1%

Structure (SMILES): CC(C)=CCc1c([C@@H]2CCc3ccc(O)cc3O2)cc2c(c1O)OC(C)(C)C(O)C2O (stereo partly specified) [BROUSSOFLAVAN A]
- Activity [15]: 0%
- Activity [16]: 0%
- Activity [17]: 87.9%
- Activity [18]: 92%
- pIC50 [8]: 4.06

Second part, led by results:

- IC50 [3]: 155.3 µg/mL (≈ 396 µM)
- pIC50 [8]: 4.49
Structure (SMILES): CC(C)=CCc1c([C@@H]2CCc3ccc(O)cc3O2)cc2c(c1O)OC(C)(C)C=C2 [KAZINOL B]
- Activity [1]: 27.6%
- Activity [2]: 27.9%
- Activity [4]: 0%
- Activity [5]: 4%
- Activity [6]: 42.6%
- Activity [7]: 79.8%
- Activity [9]: 23.1%

- pIC50 [8]: 4.04
Structure (SMILES): CC(=O)Oc1cc(O)c(C(=O)/C=C/c2ccc(OC(C)=O)c(OC(C)=O)c2)cc1CC=C(C)C [BROUSSOCHALCONE TRIACETATE]
- Activity [15]: 9.3%
- Activity [16]: 23.1%
- Activity [17]: 0%
- Activity [18]: 88.4%
- Activity [19]: 9.6%
- Activity [20]: 82.1%

- pIC50 [8]: 4.30
- pIC50 [13]: 4.31
Structure (SMILES): CC(C)=CCc1c(-c2cc(O)c(O)cc2O)oc2c(CC=C(C)C)c3c(c(O)c2c1=O)C=CC(C)(C)O3 [HETEROPHYLLIN]
- Activity [19]: 0%
- Activity [21]: 0%
- Activity [20]: 32%
- Activity [22]: 80.2%

- IC50 [3]: 22.7 µg/mL (≈ 67.1 µM)
- pIC50 [8]: 4.81
Structure (SMILES): CC(C)=CCc1cc2c(cc1O)O/C(=C\c1ccc(O)c(O)c1)C2=O [BROUSSOAURONE A]
- Activity [15]: 0%
- Activity [16]: 0%
- Activity [17]: 89.5%
- Activity [18]: 93.7%

- pIC50 [8]: 4.40
Structure (SMILES): CC(C)=CCc1c(-c2oc3c(CC=C(C)C)c(O)cc(O)c3c(=O)c2O)cc(O)c(O)c1CC=C(C)C [BROUSSOFLAVONOL E]
- Activity [19]: 0%
- Activity [21]: 0%
- Activity [20]: 86.4%
- Activity [22]: 91.8%

- pIC50 [8]: 4.73
- pIC50 [13]: 4.63
Structure (SMILES): COc1ccc2c(c1)OC(C=C(C)C)c1c-2oc2cc(O)c(/C=C/C(C)C)c(O)c2c1=O (stereo unspecified) [CYCLOARTOCARPIN A]
- Activity [32]: 39.5%
- Activity [33]: 60.9%
- Activity [34]: 86.5%
- Activity [35]: 89.9%

- IC50 [3]: 26.1 µg/mL (≈ 51.9 µM)
- pIC50 [8]: 4.96
Structure (SMILES): CC(C)=CCc1c2c(c(O)c3c(=O)c4c(oc13)-c1cc(O)c(O)cc1OC4C=C(C)C)C=CC(C)(C)O2 (stereo unspecified) [CYCLOHETERPHYLLIN]
- Activity [1]: 55.1%
- Activity [2]: 61.6%
- Activity [15]: 0%
- Activity [16]: 33.8%
- Activity [17]: 4.5%
- Activity [18]: 82.4%
- Activity [9]: 35.5%

- IC50 [3]: 0.7 µg/mL (≈ 1.96 µM)
Structure (SMILES): COc1ccc2c(c1)c(CC(=O)O)c(C)n2C(=O)c1ccc(Cl)cc1 [INDOMETHACIN]
